Results taken from patent EP2951180B1, “2,6,7,8 SUBSTITUTED PURINES AS HDM2 INHIBITORS” (Merck Sharp & Dohme Corp., priority 2013, dated 2014).

molecular target: T1, HDM2 (Homo sapiens, UniProt Q00987); test: HDM2 FRET assay (inhibition of binding of FITC labeled p53-pocket peptide to HDM2); settings: 0.5 nM HDM2 (residues 17 to 125), 3nM peptide, two hour incubation at room temperature; read-out: FRET IC50
T1 construct: Thioredoxin (N); made in house; host or cells: E. coli strain BL21(DE3)Rosetta
T1 sequence (Q00987 17-125): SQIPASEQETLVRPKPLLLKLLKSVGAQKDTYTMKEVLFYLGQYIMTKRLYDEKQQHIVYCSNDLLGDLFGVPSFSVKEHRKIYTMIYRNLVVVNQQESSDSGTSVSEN
In short: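 Displacement of FITC-p53 peptide (3 nM) from His-tagged HDM2 (0.5 nM) is measured by Tb-to-fluorescein FRET in PBS, 0.01% BSA, 0.01% Tween-20. IC50 values derive from 10-point curves.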

`C[C@@H](Nc1nc(S(C)(=O)=O)nc2nc(N3CCOC[C@H]3c3ccccc3)n(C[C@H]3CC[C@H](C)CC3)c12)C1CCC1` [Example 14.1, N-((R)-1-cyclobutylethyl)-7-((trans-4-methylcyclohexyl)methyl)-2-(methylsulfonyl)-8-((R)-3-phenylmorpholino)-7H-purin-6-amine] and `CCS(=O)(=O)c1nc(N[C@H](C)C2CCC2)c2c(n1)nc(N1CCOC[C@H]1c1ccccc1)n2C[C@H]1CC[C@H](C)CC1` [Example 14.5, N-[(1R)-1-cyclobutylethyl]-2-(ethylsulfonyl)-7-[(trans-4-methylcyclohexyl)methyl]-8-[(3R)-3-phenylmorpholin-4-yl]-7H-purin-6-amine] are within 1.5-fold of each other in IC50: 23.5 nM for the first, 20.1 nM for the second.

Going from `CC(C)c1ccnc(-c2nc3nc(S(C)(=O)=O)nc(N[C@H](C)C4CCC4)c3n2C[C@H]2CC[C@H](C)CC2)c1` [Example 14.4, N-[(1R)-1-cyclobutylethyl]-7-[(trans-4-methylcyclohexyl)methyl]-8-[4-(1-methylethyl)pyridin-2-yl]-2-(methylsulfonyl)-7H-purin-6-amine] to `CC(C)c1ccnc(-c2nc3nc(C(=O)O)nc(N[C@H](C)C4CCC4)c3n2C[C@H]2CC[C@H](C)CC2)c1` [Example 15.1, 6-(((R)-1-cyclobutylethyl)amino)-8-(4-isopropylpyridin-2-yl)-7-((trans-4-methylcyclohexyl)methyl)-7H-purine-2-carboxylic acid], the IC50 falls from 72.4 nM to 1.3 nM (56-fold). The second is the more potent here.

Compared with `CC(C)S(=O)(=O)c1nc(N[C@H](C)C2CCC2)c2c(n1)nc(N1CCOC[C@H]1c1ccccc1)n2C[C@H]1CC[C@H](C)CC1` [Example 14.6, N-[(1R)-1-cyclobutylethyl]-7-[(trans-4-methylcyclohexyl)methyl]-2-[(1-methylethyl)sulfonyl]-8-[(3R)-3-phenylmorpholin-4-yl]-7H-purin-6-amine], `C[C@@H](Nc1nc(S(=O)(=O)CCO)nc2nc(N3CCOC[C@H]3c3ccccc3)n(C[C@H]3CC[C@H](C)CC3)c12)C1CCC1` [Example 14.18, 2-[(6-{[(1R)-1-cyclobutylethyl]amino} -7-[(trans-4-methylcyclohexyl)methyl]-8-[(3R)-3-phenylmorpholin-4-yl]-7H-purin-2-yl)sulfonyl]ethanol] is 3-fold lower in IC50: 21.1 nM for the first, 6.94 nM for the second.

`CC[S+]([O-])c1nc(N[C@H](C)C2CCC2)c2c(n1)nc(N1CCOC[C@H]1c1ccccc1)n2C[C@H]1CC[C@H](C)CC1` (stereo partly drawn) [Example 14.7, N-[(1R)-1-cyclobutylethyl]-2-(ethylsulfinyl)-7-[(trans-4-methylcyclohexyl)methyl]-8-[(3R)-3-phenylmorpholin-4-yl]-7H-purin-6-amine] and `CC(C)[S+]([O-])c1nc(N[C@H](C)C2CCC2)c2c(n1)nc(N1CCOC[C@H]1c1ccccc1)n2C[C@H]1CC[C@H](C)CC1` (stereo partly drawn) [Example 14.8, N-[(1R)-1-cyclobutylethyl]-7-[(trans-4-methylcyclohexyl)methyl]-2-[(1-methylethyl)sulfinyl]-8-[(3R)-3-phenylmorpholin-4-yl]-7H-purin-6-amine] are within 1.5-fold of each other in IC50: 12.2 nM for the first, 15.5 nM for the second.

Compared with `C[C@@H](Nc1nc(S(=O)(=O)CC(F)(F)F)nc2nc(N3CCOC[C@H]3c3ccccc3)n(C[C@H]3CC[C@H](C)CC3)c12)C1CCC1` [Example 14.15, N-[(1R)-1-cyclobutylethyl]-7-[(trans-4-methylcyclohexyl)methyl]-8-[(3R)-3-phenylmorpholin-4-yl]-2-[(2,2,2-trifluoroethyl)sulfonyl]-7H-purin-6-amine], `Cc1cccc(-c2nc3nc(C(=O)O)nc(N[C@H](C)C4CCC4)c3n2C[C@H]2CC[C@H](C)CC2)c1` [Example 15.14, 6-{[(1R)-1-cyclobutylethyl]amino}-7-[(trans-4-methylcyclohexyl)methyl]-8-(3-methylphenyl)-7H-purine-2-carboxylic acid] is 76-fold lower in IC50: 220 nM for the first, 2.91 nM for the second.

Going from `CC(C)c1ccnc(-c2nc3nc(C(=O)O)nc(N(C)[C@H](C)C4CCC4)c3n2C[C@H]2CC[C@H](C)CC2)c1` [Example 15.2, 6-(((R)-1-cyclobutylethyl)(methyl)amino)-8-(4-isopropylpyridin-2-yl)-7-((trans-4-methylcyclohexyl)methyl)-7H-purine-2-carboxylic acid] to `CC(C)c1ccnc(-c2nc3nc(C(=O)O)nc(N[C@H](C)C4CCC4)c3n2C[C@H]2CC[C@H](C)CC2)c1` [Example 15.15, 6-{[(1R)-1-cyclobutylethyl]amino}-7-[(trans-4-methylcyclohexyl)methyl]-8-[4-(1-methylethyl)pyridin-2-yl]-7H-purine-2-carboxylic acid], the IC50 falls from 10.5 nM to 2.55 nM (4.1-fold). The second is the more potent here.

Going from `CC(C)c1cc(-c2nc3nc(C(=O)O)nc(N[C@H](C)C4CCC4)c3n2C[C@H]2CC[C@H](C)CC2)[nH]c(=O)c1` [Example 15.3, 6-(((R)-1-cyclobutylethyl)amino)-8-(4-isopropyl-6-oxo-1,6-dihydropyridin-2-yl)-7-((trans-4-methylcyclohexyl)methyl)-7H-purine-2-carboxylic acid] to `CCOc1cc(C(C)C)cc(-c2nc3nc(C(=O)O)nc(N[C@H](C)C4CCC4)c3n2C[C@H]2CC[C@H](C)CC2)n1` [Example 15.4, 6-(((R)-1-cyclobutylethyl)amino)-8-(6-ethoxy-4-isopropylpyridin-2-yl)-7-((trans-4-methylcyclohexyl)methyl)-7H-purine-2-carboxylic acid], the IC50 falls from 15.5 nM to 4.44 nM (3.5-fold).

Compared with `CC(C)c1cc(F)nc(-c2nc3nc(-c4noc(=O)[nH]4)nc(N[C@H](C)C4CCC4)c3n2C[C@H]2CC[C@H](C)CC2)c1` [Example 15.5, 3-(6-(((R)-1-cyclobutylethyl)amino)-8-(6-fluoro-4-isopropylpyridin-2-yl)-7-((trans-4-methylcyclohexyl)methyl)-7H-purin-2-yl)-1,2,4-oxadiazol-5(2H)-one], `CC(C)c1cc(-c2nc3nc(-c4noc(=O)[nH]4)nc(N[C@H](C)C4CCC4)c3n2C[C@H]2CC[C@H](C)CC2)ncc1F` [Example 15.10, 3-(6-(((R)-1-cyclobutylethyl)amino)-8-(5-fluoro-4-isopropylpyridin-2-yl)-7-((trans-4-methylcyclohexyl)methyl)-7H-purin-2-yl)-1,2,4-oxadiazol-5(4H)-one] is 2.8-fold lower in IC50: 33.5 nM for the first, 11.8 nM for the second.

First: CC(C)c1ccnc(-c2nc3nc(C(=O)O)nc(N[C@H](C)C4CCC4)c3n2C[C@H]2CC[C@H](C)CC2)c1F [Example 15.6, 6-(((R)-1-Cyclobutylethyl)amino)-8-(3-fluoro-4-isopropylpyridin-2-yl)-7-((trans-4-methylcyclohexyl)methyl)-7H-purine-2-carboxylic acid]
Second: CC(C)c1cc(-c2nc3nc(C(=O)O)nc(N[C@H](C)C4CCC4)c3n2C[C@H]2CC[C@H](C)CC2)ncc1F [Example 15.8, 6-(((R)-1-cyclobutylethyl)amino)-8-(5-fluoro-4-isopropylpyridin-2-yl)-7-((trans-4-methylcyclohexyl)methyl)-7H-purine-2-carboxylic acid]
The IC50 of the first is 5.3-fold higher: 6.02 nM for the first, 1.14 nM for the second. The second is the more potent here.

`CC(C)c1ccnc(-c2nc3nc(-c4noc(=O)[nH]4)nc(N[C@H](C)C4CCC4)c3n2C[C@H]2CC[C@H](C)CC2)c1F` [Example 15.7, 3-(6-((R)-1-cyclobutylethylamino)-8-(3-fluoro-4-isopropylpyridin-2-yl)-7-((trans-4-methylcyclohexyl)methyl)-7H-purin-2-yl)-1,2,4-oxadiazol-5(4H)-one] and `C[C@@H](Nc1nc(-c2noc(=O)[nH]2)nc2nc(-c3cc(C(C)(C)O)c(F)cn3)n(C[C@H]3CC[C@H](C)CC3)c12)C1CCC1` [Example 15.9, 3-(6-(((R)-1-cyclobutylethyl)amino)-8-(5-fluoro-4-(2-hydroxypropan-2-yl)pyridin-2-yl)-7-((trans-4-methylcyclohexyl)methyl)-7H-purin-2-yl)-1,2,4-oxadiazol-5(4H)-one] are within 1.5-fold of each other in IC50: 5.13 nM for the first, 3.95 nM for the second.

Compared with `C[C@@H](Nc1nc(C(=O)O)nc2nc(-c3nccs3)n(C[C@H]3CC[C@H](C)CC3)c12)C1CCC1` [Example 15.11, 6-(((R)-1-cyclobutylethyl)amino)-7-((trans-4-methylcyclohexyl)methyl)-8-(thiazol-2-yl)-7H-purine-2-carboxylic acid], `C[C@@H](Nc1nc(-c2noc(=O)[nH]2)nc2nc(-c3nccs3)n(C[C@H]3CC[C@H](C)CC3)c12)C1CCC1` [Example 15.12, 3-(6-(((R)-1-cyclobutylethyl)amino)-7-((trans-4-methylcyclohexyl)methyl)-8-(thiazol-2-yl)-7H-purin-2-yl)-1,2,4-oxadiazol-5(4H)-one] is 2.6-fold higher in IC50: 2.45 nM for the first, 6.28 nM for the second. The first is the more potent here.

Compared with `COc1ccc(C)cc1-c1nc2nc(C(=O)O)nc(N[C@H](C)C3CCC3)c2n1C[C@H]1CC[C@H](C)CC1` [Example 15.13, 6-{[(1R)-1-cyclobutylethyl]amino}-8-(2-methoxy-5-methylphenyl)-7-[(trans-4-methylcyclohexyl)methyl]-7H-purine-2-carboxylic acid], `C[C@@H](Nc1nc(C(=O)O)nc2nc(-c3cc(C(C)(C)C)ccn3)n(C[C@H]3CC[C@H](C)CC3)c12)C1CCC1` [Example 15.16, 8-(4-tert-butylpyridin-2-yl)-6-{[(1R)-1-cyclobutylethyl]amino}-7-[(trans-4-methylcyclohexyl)methyl]-7H-purine-2-carboxylic acid] is 4.8-fold lower in IC50: 4.96 nM for the first, 1.04 nM for the second. The second is the more potent here.

`C[C@@H](Nc1nc(C(=O)O)nc2nc(-c3cc(C4CC4)ccn3)n(C[C@H]3CC[C@H](C)CC3)c12)C1CCC1` [Example 15.17, 6-{[(1R)-1-cyclobutylethyl]amino}-8-(4-cyclopropylpyridin-2-yl)-7-[(trans-4-methylcyclohexyl)methyl]-7H-purine-2-carboxylic acid] and `C[C@@H](Nc1nc(C(=O)O)nc2nc(-c3cc(C4CCC4)ccn3)n(C[C@H]3CC[C@H](C)CC3)c12)C1CCC1` [Example 15.18, 6-{[(1R)-1-cyclobutylethyl]amino}-8-(4-cyclobutylpyridin-2-yl)-7-[(trans-4-methylcyclohexyl)methyl]-7H-purine-2-carboxylic acid] are within 1.5-fold of each other in IC50: 2.09 nM for the first, 1.8 nM for the second.
